Test results: patent US20260216138A1, “IDENTIFICATION OF OTUD7B INHIBITOR 7BI AND ITS APPLICATION IN REDUCING GROWTH OF NSCLC AND LEUKEMIA CELLS” (The University of North Carolina at Chapel Hill, priority 2023, published 2026)

Columns and labels:
[1] = molecular target: T1, OTUD7B binding to GβL (Homo sapiens, UniProt Q6GQQ9); assay: OTUD7B binding to GβL; type: cell-based
T1 sequence (Q6GQQ9 1-843): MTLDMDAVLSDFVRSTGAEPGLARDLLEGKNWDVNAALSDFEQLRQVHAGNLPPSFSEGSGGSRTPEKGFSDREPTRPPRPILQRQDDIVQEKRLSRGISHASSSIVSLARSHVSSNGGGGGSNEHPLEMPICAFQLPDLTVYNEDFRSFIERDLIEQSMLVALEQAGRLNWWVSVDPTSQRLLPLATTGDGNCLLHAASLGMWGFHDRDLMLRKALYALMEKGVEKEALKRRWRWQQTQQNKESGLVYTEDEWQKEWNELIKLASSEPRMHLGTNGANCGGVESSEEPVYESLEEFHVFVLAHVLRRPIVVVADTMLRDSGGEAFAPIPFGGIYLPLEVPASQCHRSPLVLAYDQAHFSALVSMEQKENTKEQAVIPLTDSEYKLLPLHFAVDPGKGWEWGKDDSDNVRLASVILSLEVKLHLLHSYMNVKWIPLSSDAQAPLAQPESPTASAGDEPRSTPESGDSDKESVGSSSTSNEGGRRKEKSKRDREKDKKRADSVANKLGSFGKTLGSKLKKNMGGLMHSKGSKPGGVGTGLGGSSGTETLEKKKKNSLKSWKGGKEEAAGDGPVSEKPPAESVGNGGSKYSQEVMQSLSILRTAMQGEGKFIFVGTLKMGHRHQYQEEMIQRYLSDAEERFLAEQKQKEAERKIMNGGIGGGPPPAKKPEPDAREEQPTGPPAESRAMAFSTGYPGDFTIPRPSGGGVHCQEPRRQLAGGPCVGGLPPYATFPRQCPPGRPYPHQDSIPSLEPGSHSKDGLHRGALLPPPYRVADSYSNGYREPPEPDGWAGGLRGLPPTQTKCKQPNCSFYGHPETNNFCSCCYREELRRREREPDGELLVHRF
Protocol: Cells were harvested and lysed in EBC buffer (50 mM Tris pH 7.5, 120 mM NaCl, 0.5% NP-40) supplemented with protease inhibitor cocktail (EDTA-free, mini-tablet) (Bimake) and phosphatase inhibitor cocktail (Bimake) by rotating in the cold room for 10 min followed by high-speed centrifugation at 4° C. The protein concentrations in supernatants of whole cell lysates were measured by NanoDrop OneC using the Bio-Rad Bradford protein assay reagent. Equal amounts of whole cell lysates were resolved on SDS-PAGE and immunoblotted with indicated antibodies. For immunoprecipitation analysis, 1 mg of total cell lysate was incubated with the indicated beads for 3-4 hr at 4° C. The recovered immuno-complexes were washed thoroughly three times with NETN buffer (20 mM Tris, pH 8.0, 100 mM NaCl, 1 mM EDTA and 0.5% NP-40) before being resuspended in SDS sample buffer and resolved on SDS-PAGE and immunoblotted with indicated antibodies.

[2] = system: Akt-pS473; assay: Akt-pS473 immunoblot in HEK293 cells; type: cell-based
Protocol: Cells were harvested and lysed in EBC buffer (50 mM Tris pH 7.5, 120 mM NaCl, 0.5% NP-40) supplemented with protease inhibitor cocktail (EDTA-free, mini-tablet) (Bimake) and phosphatase inhibitor cocktail (Bimake) by rotating in the cold room for 10 min followed by high-speed centrifugation at 4° C. The protein concentrations in supernatants of whole cell lysates were measured by NanoDrop OneC using the Bio-Rad Bradford protein assay reagent. Equal amounts of whole cell lysates were resolved on SDS-PAGE and immunoblotted with indicated antibodies. For immunoprecipitation analysis, 1 mg of total cell lysate was incubated with the indicated beads for 3-4 hr at 4° C. The recovered immuno-complexes were washed thoroughly three times with NETN buffer (20 mM Tris, pH 8.0, 100 mM NaCl, 1 mM EDTA and 0.5% NP-40) before being resuspended in SDS sample buffer and resolved on SDS-PAGE and immunoblotted with indicated antibodies. […]

## Cc1cc(NC(=O)c2cnn(C)c2C(=O)Nc2cc(C)nn2C2CCCC2)n(C2CCCC2)n1 [7Bi]
[1]
  OTUD7B binding to GβL: nor significantly affected OTUD7B binding to GβL
[2]; HPLC purified 7Bi (~99% purity) compared with 90% purity
  downregulation of Akt-pS473 signals by purified 7Bi: retained its ability
[2]; indicated doses, 16 hrs
  suppression of Akt-pS473: efficiently suppressed Akt-pS473
